Reference: PubChem BioAssay AID1963972 (Molecular Pharmacology Branch, DTP, NCI, 2024)

Tested on: 945468-187-T-J2-PDC spheroids viability
Test: Anticancer human tumor 945468-187-T-J2-PDC patient-derived rectal carcinoma cell line growth inhibition [PI3K]
Conditions: spheroids with HUVEC and MSC; for IC50: curve of first compound; for viability, T/C: stronger effect = lower value
Method in brief: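 We assembled tumor spheroids that included a stromal compartment of HUVEC and MSCs, then exposed them to targeted agents alone and together with PI3K pathway inhibitors. Concentration series descended by half-log from clinically achievable Cmax levels. Viability served as the endpoint.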
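Further: spheroids exposed to compounds for seven days before reading.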

C=CC(=O)N1CCN(c2nc(=O)n(-c3c(C)ccnc3C(C)C)c3nc(-c4c(O)cccc4F)c(F)cc23)C(C)C1 (configuration not stated) + COc1c(OCCCN2CCOCC2)ccc2c3n(c(=NC(=O)c4cnc(N)nc4)nc12)CCN3 gave an IC50 (second compound 0.00316 µM) of over 10 µM, an IC50 (second compound 0.01 µM) of over 10 µM and an IC50 (second compound 0.0316 µM) of over 10 µM. The IC50 (second compound 0.1 µM) was over 10 µM, the IC50 (second compound 0.316 µM) was under 0.0316 µM and the IC50 (second compound 1 µM) was under 0.0316 µM. For the same molecule, the viability, T/C (second compound 0.00316 µM, first compound 0.0316 µM) was 92.6%, the viability, T/C (second compound 0.00316 µM, first compound 0.1 µM) was 99.4% and the viability, T/C (second compound 0.00316 µM, first compound 0.316 µM) was 107%. It also gave a viability, T/C (second compound 0.00316 µM, first compound 1 µM) of 98.4%, a viability, T/C (second compound 0.00316 µM, first compound 3.16 µM) of 103% and a viability, T/C (second compound 0.00316 µM, first compound 10 µM) of 120%. For the same molecule, the viability, T/C (second compound 0.01 µM, first compound 0.0316 µM) was 94.6%, the viability, T/C (second compound 0.01 µM, first compound 0.1 µM) was 100% and the viability, T/C (second compound 0.01 µM, first compound 0.316 µM) was 82.8%. For the same molecule, the viability, T/C (second compound 0.01 µM, first compound 1 µM) was 96.1%, the viability, T/C (second compound 0.01 µM, first compound 3.16 µM) was 98% and the viability, T/C (second compound 0.01 µM, first compound 10 µM) was 117%. It also gave a viability, T/C (second compound 0.0316 µM, first compound 0.0316 µM) of 90.6%, a viability, T/C (second compound 0.0316 µM, first compound 0.1 µM) of 90.1% and a viability, T/C (second compound 0.0316 µM, first compound 0.316 µM) of 108%. It also gave a viability, T/C (second compound 0.0316 µM, first compound 1 µM) of 108%, a viability, T/C (second compound 0.0316 µM, first compound 3.16 µM) of 94.7% and a viability, T/C (second compound 0.0316 µM, first compound 10 µM) of 97.3%. The viability, T/C (second compound 0.1 µM, first compound 0.0316 µM) was 81.4%, the viability, T/C (second compound 0.1 µM, first compound 0.1 µM) was 98.1% and the viability, T/C (second compound 0.1 µM, first compound 0.316 µM) was 73.1%. It also gave a viability, T/C (second compound 0.1 µM, first compound 1 µM) of 85.6%, a viability, T/C (second compound 0.1 µM, first compound 3.16 µM) of 85% and a viability, T/C (second compound 0.1 µM, first compound 10 µM) of 93.2%. For the same molecule, the viability, T/C (second compound 0.316 µM, first compound 0.0316 µM) was 36.9%, the viability, T/C (second compound 0.316 µM, first compound 0.1 µM) was 37.9% and the viability, T/C (second compound 0.316 µM, first compound 0.316 µM) was 51.2%. It also gave a viability, T/C (second compound 0.316 µM, first compound 1 µM) of 46.7%, a viability, T/C (second compound 0.316 µM, first compound 3.16 µM) of 37.2% and a viability, T/C (second compound 0.316 µM, first compound 10 µM) of 48.5%. It also gave a viability, T/C (second compound 1 µM, first compound 0.0316 µM) of 17.9%, a viability, T/C (second compound 1 µM, first compound 0.1 µM) of 21.1% and a viability, T/C (second compound 1 µM, first compound 0.316 µM) of 21.7%. The viability, T/C (second compound 1 µM, first compound 1 µM) was 20.7%, the viability, T/C (second compound 1 µM, first compound 3.16 µM) was 22.7% and the viability, T/C (second compound 1 µM, first compound 10 µM) was 20.9%.
